These results are taken from ChEMBL document CHEMBL1641406, “Discovery of a 1,5-dihydrobenzo[b][1,4]diazepine-2,4-dione series of inhibitors of HIV-1 capsid assembly” (Bioorg Med Chem Lett, 2011).

Data set [1] deals with Human immunodeficiency virus 1. The data set can be described thus: Antiviral activity against HIV1 infected in human C8166 cells assessed as inhibition of viral replication after 3 days by luciferase assay. The following applies: Human immunodeficiency virus 1, C8166, 72 h. Format: functional, organism-based.
For another data set, the system named is Rous sarcoma virus. Kind of data set: Antiviral activity against Rous sarcoma virus assessed as inhibition of capsid assembly. In kind it is functional.
The test system of data set [2] is Human immunodeficiency virus 1. The data set can be described thus: Antiviral activity against HIV1 assessed as inhibition of capsid assembly. In kind it is functional.
The test system of data set [3] is Human immunodeficiency virus 1. The data set can be described thus: Antiviral activity against HIV1 assessed as inhibition of capsid assembly at 1.4 uM. In kind it is functional.
Data set [4] deals with Human immunodeficiency virus 1. The data set can be described thus: Antiviral activity against HIV1 expressing wild type reverse transcriptase infected in human C8166 cells assessed as inhibition of viral replication after 3 days by luciferase assay. The following applies: Human immunodeficiency virus 1, C8166, 72 h. In kind it is functional, organism-based.
Data set [5] deals with Human immunodeficiency virus 1. The data set can be described thus: Antiviral activity against HIV1 assessed as inhibition of capsid assembly at 3.8 uM. Format: functional.
The test system of data set [6] is Human immunodeficiency virus 1. Kind of data set: Antiviral activity against HIV1 expressing reverse transcriptase K103N/Y181C double mutant infected in human C8166 cells assessed as inhibition of viral replication after 3 days by luciferase assay. In kind it is functional, organism-based. The note with it: Human immunodeficiency virus 1, C8166, 72 h.
Data set [7] in a line: Cytotoxicity against human C8166 cells. In kind it is cell-based.

One may read the EC50 as the midpoint of the concentration-response curve. What is called IC50 is the concentration that gives 50% inhibition. Broadly, the inhibition is how much of the control response was suppressed. By CC50 is commonly meant the concentration at which the toxic effect on the cells reaches its halfway point.

With `CCCCN/C=C1\C(=O)Nc2ccc(Cl)cc2N(c2ccccc2)C1=O`, the EC50 in data set [1] was determined as 17000 nM. The IC50 is above 100000 nM in the data set with Rous sarcoma virus and 1400 nM in data set [2].
For the molecule `O=C1CC(=O)Nc2cc(Cl)ccc2N1`, the concentration for half-maximal inhibition (IC50) in data set [2] was above 46000 nM.
Consider `COCCN/C=C1\C(=O)Nc2ccc(Cl)cc2NC1=O`, for which the IC50 in data set [2] turned out to be 1400 nM.
On the same count and under the same terms, the figure for `O=C1Nc2ccc(Cl)cc2NC(=O)/C1=C/NCCO` is 850 nM; for `O=C1Nc2ccc(Cl)cc2NC(=O)/C1=C/NCc1ccncc1` it is 670 nM; for `COCCN/C=C1/C(=O)Nc2cc(Cl)ccc2N(C)C1=O` it is 590 nM.
`CCN1C(=O)/C(=C\NCCOC)C(=O)Nc2cc(Cl)ccc21`: in data set [2], the IC50 stood at 470 nM.
As to `COCCN/C=C1/C(=O)Nc2cc(Cl)ccc2N(c2ccc(C)cc2)C1=O`, the 50% inhibitory concentration (IC50) in data set [2] is above 9000 nM.
Take `COCCN/C=C1\C(=O)N(C)c2cccc(Cl)c2N(c2ccccc2)C1=O`: the IC50 in data set [2] is 930 nM.
For `COCCN/C=C1\C(=O)N(C)c2c(Cl)cccc2N(c2ccccc2)C1=O`, the 50% inhibitory concentration (IC50) in data set [2] came to 2600 nM.
On to `COCCN/C=C1\C(=O)N(C)c2cc(Cl)ccc2N(c2ccccc2)C1=O`, for which, in data set [2], the IC50 stood at 1600 nM.
Still for that read-out and setting: the figure for `COCCN/C=C1\C(=O)N(C)c2ccc(C(F)(F)F)cc2N(c2ccccc2)C1=O` is 890 nM; for `COCCN/C=C1\C(=O)N(C)c2ccc(C3CC3)cc2N(c2ccccc2)C1=O` it is 1400 nM.
Consider `COCCN/C=C1\C(=O)N(C)c2ccc(C(F)(F)F)cc2N(c2ccc(Cl)cc2)C1=O`, for which the half-inhibitory concentration (IC50) in data set [2] came out at 4000 nM.
As for `COCCN/C=C1\C(=O)N(C)c2ccc(C(F)(F)F)cc2N(c2cccc(Cl)c2)C1=O`, the IC50 in data set [2] is 7800 nM.
Same read-out and setting: then `COCCN/C=C1\C(=O)N(C)c2ccccc2N(c2cccs2)C1=O`, with 500 nM.
Take `CN1c2ccc(Cl)cc2N(c2ccccc2)C(=O)c2c[nH]nc21`: the concentration for a half-maximal effect (EC50) in data set [1] came to 7800 nM. Further, the IC50 in data set [2] came out at 300 nM.
On the same counts, the results for `CN1c2ccc(Cl)cc2N(c2ccccc2)C(=O)c2cn(C)nc21` are 7000 nM and 700 nM.
As for `CCn1cc2c(n1)N(C)c1ccc(Cl)cc1N(c1ccccc1)C2=O`, the 50% inhibitory concentration (IC50) in data set [2] was 2200 nM.
As to `COCCn1cc2c(n1)N(C)c1ccc(Cl)cc1N(c1ccccc1)C2=O`, the 50% effective concentration (EC50) in data set [1] stood at 16000 nM. In data set [2], the IC50 amounted to 1500 nM.
Consider `CN(C)CCn1cc2c(n1)N(C)c1ccc(Cl)cc1N(c1ccccc1)C2=O`, for which, in data set [1], the EC50 worked out at 16000 nM. Moreover, the IC50 in data set [2] is 6800 nM.
With `CN1c2ccc(Cl)cc2N(c2ccccc2)C(=O)c2cn(Cc3ccc(CN4CCOCC4)cc3)nc21`, the EC50 in data set [1] worked out at 900 nM. The 50% inhibitory concentration (IC50) in data set [2] was 1000 nM.
As to `CN1c2ccc(Cl)cc2N(c2ccccc2)C(=O)c2cn(Cc3ccc(C(=O)O)cc3)nc21`, the half-maximal effective concentration (EC50) in data set [1] came to 2000 nM. The half-inhibitory concentration (IC50) in data set [2] was determined as 600 nM.
Take `CN1c2ccc(Cl)cc2N(c2ccccc2)C(=O)c2cn(Cc3cccc(O)c3)nc21`: the EC50 in data set [1] came out at 4700 nM. Besides, the concentration for half-maximal inhibition (IC50) in data set [2] is 600 nM.
As for `CN1c2ccc(Cl)cc2N(c2ccccc2)C(=O)c2[nH]cnc21`, in data set [1], the half-maximal effective concentration (EC50) came out at 3800 nM. The half-inhibitory concentration (IC50) in data set [2] is 210 nM.
On the same counts, the results for `CN1c2ccc(Cl)cc2N(c2ccccc2)C(=O)c2c1ncn2C` are 2900 nM and 300 nM.
On to `CCn1cnc2c1C(=O)N(c1ccccc1)c1cc(Cl)ccc1N2C`, for which the concentration giving a half-maximal response (EC50) in data set [1] came out at 5200 nM. Besides, the 50% inhibitory concentration (IC50) in data set [2] came out at 220 nM.
Turning to `COCCn1cnc2c1C(=O)N(c1ccccc1)c1cc(Cl)ccc1N2C`, the EC50 in data set [1] turned out to be 5800 nM. For the same molecule, the IC50 in data set [2] was 360 nM.
In the case of `CN1c2ccc(Cl)cc2N(c2ccccc2)C(=O)c2c1ncn2CCN`, the 50% effective concentration (EC50) in data set [1] came out at 4800 nM. Further, the IC50 in data set [2] came out at 370 nM.
`CN1c2ccc(Cl)cc2N(c2ccccc2)C(=O)c2c1ncn2Cc1cccc(O)c1`: the EC50 in data set [1] amounted to 7300 nM. Besides, the IC50 in data set [2] stood at 560 nM.
For `CN1c2ccc(Cl)cc2N(c2ccccc2)C(=O)c2c1ncn2Cc1ccc(C(=O)O)cc1`, the EC50 in data set [1] amounted to 6100 nM. Further, the IC50 in data set [2] turned out to be 430 nM.
Regarding `COCCNCc1ccc(Cn2cnc3c2C(=O)N(c2ccccc2)c2cc(Cl)ccc2N3C)cc1`, in data set [1], the half-maximal effective concentration (EC50) was 900 nM. Moreover, the IC50 in data set [2] was 170 nM.
On to `C=CCC1C(=O)N(C)c2ccc(C(F)(F)F)cc2N(c2ccccc2)C1=O` (configuration not stated), for which the IC50 in data set [2] stood at 16000 nM.
On to `CN1C(=O)C(CCc2ccccc2)C(=O)N(c2ccccc2)c2cc(C(F)(F)F)ccc21` (configuration not stated), for which, in data set [3], the inhibition at 1.4 µM came to 10%.
On to `CN1C(=O)C(Cc2ccccc2)C(=O)N(c2ccccc2)c2cc(C(F)(F)F)ccc21` (configuration not stated), for which the EC50 in data set [4] is above 20000 nM. Moreover, the inhibition at 3.8 µM in data set [5] was determined as 40%.
For the molecule `CN1C(=O)C(c2ccccc2)C(=O)N(c2ccccc2)c2cc(C(F)(F)F)ccc21` (configuration not stated), the concentration giving a half-maximal response (EC50) in data set [6] amounted to 2700 nM; in data set [4], 3000 nM. Moreover, the CC50 in data set [7] was above 20000 nM. Also, the half-maximal inhibitory concentration (IC50) in data set [2] was found to be 1200 nM.
